# Read-outs that look alike come from different tables or passages of the source.
# How the values were obtained:
# Botox-induced symptoms = assay type: in vivo, mouse; details: for reading of Botox-induced muscle weakness after topical DAP: n=7
# mice = details: effective-dose comparison with PMB; cited from earlier work
# various bacteria = details: cited from earlier work
# neuromuscular blockade = details: effective-dose comparison with PMB; cited from earlier work
# eukaryotic cytotoxicity = details: cited from earlier work
# rat mast cells = details: cited from earlier work
# [1] = in vivo; cited from earlier work
Compound,reading of Botox-induced muscle weakness after topical DAP (Botox-induced symptoms; at 1 hour),reading of Botox-induced muscle weakness after topical DAP (Botox-induced symptoms; at 4 hour),"reading later in the experiment (Botox-induced symptoms; mouse, in vivo)","response to topical administration (Botox-induced symptoms; mouse, in vivo)","fold less toxic than PMB, acute toxicity (mice) [times]",MIC compared to parent molecule PMB (various bacteria),fold less active than PMB in causing neuromuscular blockade (neuromuscular blockade) [times],"fold less toxic than PMB, cytotoxicity (eukaryotic cytotoxicity) [times]",fold less active than PMB in releasing histamine (rat mast cells) [time],half-life [1]
"Nc1ccncc1N [DAP, 3,4-diaminopyridine]",1.5,0.75,the reading went up,rapid response,,,,,,
Polymyxin B nonapeptide [PMBN],,,,,15,increased up to thousand folds,150,100,25,approximately 25 minutes

# From US20060093597A1, “Methods of treating involuntary facial spasms and facial wrinkles” (priority 2002, published 2006)
